According to patent publication US8383824B2, “Heterocyclic antiviral compounds” (Roche Palo Alto LLC, priority 2009, dated 2013):

Key:
[1] = system: HCV replicon cells (2209-23); test: HCV replicon assay (Renilla luciferase reporter); type: cell-based, HCV genotype 1b replicon in human hepatoma Huh7 cells; settings: Hepatitis C virus, 72 h; 2209-23 cells, three days incubation
[2] = Determination of pharmacokinetic parameters in rats; type: in vivo; settings: male, Wistar Han (Hanover-Wistar), Crl:WI(GLx/BRL/Han)IGS BR, rat, oral gavage, 10 mg/kg, plasma; for AUC(0-t): read-out: AUC0→24 (extrapolated)
Protocol: Intact male IGS Wistar Han Rats Crl:WI(GLx/BRL/Han)IGS BR (Hanover-Wistar) rats weighing 200-250 g were used. Groups of three rats were used for each dose level of an experimental compound. Animals were allowed normal access to chow and water throughout the experiment. The test substance was formulated as an aqueous suspension containing Captex355EP, Capmul MCM, EtOH, and propylene glycol (30:20:20:30) at a dose equivalent to 10 mg/kg of the I-6 and was administered orally by gavage. A blood sample (0.3 mL) was collected from the treated rats at, 0.25, 0.5, 1, 3, 5, and 8 h from a jugular cannula and at 24 h by cardiac puncture. Potassium oxalate/NaF were added to the samples which were stored on ice during sampling procedure. The samples were spun in a refrigerated centrifuge at […] as soon as possible and the plasma samples were stored in a −80° C. freezer until analysis. Aliquots of plasma (0.05 mL) were mixed with 0.1 mL of acetonitrile. Internal standard (0.05 mL in water) and 0.02 mL blank solvent were added. A set of calibration standards was prepared by mixing 0.05-mL aliquots of plasma from untreated rats with 0.1 mL acetonitrile, 0.02-mL aliquots of standard solution in methanol:water (1:1) and 0.05-mL aliquots of the internal standard in water. Each plasma sample and calibration standard was vortexed thoroughly and then centrifuged at 3000 rpm for 5 min to precipitate the protein. Supernatant (100 μL each) from centrifugation was transferred into a 96-well plate containing 200 μL of aqueous mobie phase for LC/MS/MS analysis.

HCV = settings: monotherapy; cited from earlier work

| AUC [2] | Cmax [2] | AUC(0-t) [2] | Structure (SMILES) | IC50 [1] | patients with serum amino transferase levels reduced to normal (HCV) |
| --- | --- | --- | --- | --- | --- |
|  |  |  | [2H]C([2H])([2H])C(c1cc(-c2ccc[nH]c2=O)cc(/C=C/c2ccc(NS(C)(=O)=O)cc2)c1OC)(C([2H])([2H])[2H])C([2H])([2H])[2H] [Compound I-1, N-(4-{(E)-2-[3-[1,1-di(methyl-d3)ethyl-2,2,2-d3]-2-methoxy-5-(2-oxo-1,2-dihydro-pyridin-3-yl)-phenyl]-vinyl}-phenyl)-methanesulfonamide] | 6.1 nM |  |
| 810 ng·h/mL | 83.4 ng/mL | 1000 ng·h/mL | [2H]C([2H])([2H])C(c1cc(-c2cc(Cl)c[nH]c2=O)cc(/C=C/c2ccc(NS(C)(=O)=O)cc2)c1OC)(C([2H])([2H])[2H])C([2H])([2H])[2H] [Compound I-3, N-(4-{(E)-2-[3-[1,1-di(methyl-d3)ethyl-2,2,2-d3]-2-methoxy-5-(2-oxo-5-chloro-1,2-dihydro-pyridin-3-yl)-phenyl]-vinyl}-phenyl)-methanesulfonamide] |  |  |
|  |  |  | [2H]C([2H])([2H])C(c1cc(-c2c[nH]c(=O)[nH]c2=O)cc(/C=C/c2ccc(NS(C)(=O)=O)cc2)c1OC)(C([2H])([2H])[2H])C([2H])([2H])[2H] [Compound I-4, N-(4-{(E)-2-[3-[1,1-di(methyl-d3)ethyl-2,2,2-d3]-5-(2,4-dioxo-1,2,3,4-tetrahydro-pyrimidin-5-yl)-2-methoxy-phenyl]-vinyl}-phenyl)-methanesulfonamide] | 3.9 nM |  |
| 338 ng·h/mL | 55.8 ng/mL | 365 ng·h/mL | COc1c(/C=C/c2ccc(NS(C)(=O)=O)cc2)cc(-c2cc(Cl)c[nH]c2=O)cc1C(C)(C)C [I-3 (non-deuterated), reference compound] |  |  |
|  |  |  | NC(=O)c1ncn([C@@H]2O[C@H](CO)[C@@H](O)[C@H]2O)n1 [ribavirin, 1-((2R,3R,4S,5R)-3,4-Dihydroxy-5-hydroxymethyl-tetrahydro-furan-2-yl)-1H-[1,2,4]triazole-3-carboxylic acid amide] |  | 40% |
